In assay [1] the test system is LPDE4. Nature of the assay: Inhibition of low affinity LPDE4 (cAMP disappearance). The assay is classed as biochemical. The note with it: ratio of IC50 values. The source says: (§1) Advantageously the compounds of the invention are characterized by selectivity toward LPDE4 higher than that toward HPDE4 as obtained by the determination of their IC50. In the case of LPDE4, the IC50 is the molar concentration of the test compound producing 50% inhibition of cAMP disappearance, assessed as described in Cortijo, J. et al., Br. J. Pharmacol., 1993, 108: 562-568, while in the case of HPDE4, the IC50 is the molar concentration of the test compound producing 50% inhibition of the binding of [H^3] rolipram, assessed as described in Duplantier, A. J. et al., J. Med. Chem., 1996; 39: 120-125. Preferably the HPDE4/LPDE4 IC50 ratio for the compounds of the invention is higher than 5, preferably higher than 10, more preferably higher than 20 and even more preferably higher than 100.
(§2) The affinity toward LPDE4 and HPDE4 was assessed as previously described respectively in Cortijo J. et al., Br. J. Pharmacol., 1993, 108: 562-568 and Duplantier A. J. et al., J. Med. Chem., 1996; 39: 120-125. In the case of LPDE4, the IC50 is the molar concentration of the test compound producing 50% inhibition of cAMP disappearance, while in the case of HPDE4, the IC50 is the molar concentration of the test compound producing 50% inhibition of the binding of [H^3] rolipram.

Assay [2] deals with T1, LPDE4.
T1 construct: LPDE4 IC50
Described as above. The note with it: 50% inhibition of cAMP disappearance. The assay is classed as biochemical.
Description: as §1, §2

Assay [3] deals with LPS-induced TNF-α release in peripheral blood mononuclear cells (PBMCs). Nature of the assay: PDE4 inhibitory activity in the PBMCs assay (LPS-induced TNF-α release). The assay is classed as cell-based. The note with it: human PBMCs, LPS 3 ng/ml, 18 hours, TNF-α by ELISA. As to the method:
The assay, which is based on the known inhibitory activity exerted by PDE4 inhibitors on the lipopolysaccharides (LPS)-induced tumour necrosis factor-alpha (TNF-α release in peripheral blood mononuclear cells (PBMCs), was performed according to a method previously described (Hatzelmann A. et al., J. Pharmacol. Exp. Ther., 2001; 297:267-279; Draheim R. et al., J. Pharmacol. Exp. Ther., 2004; 308:555-563. Cryopreserved human PBMCs, (100 μl/well) were incubated in 96-well plates (10^5 cells/well), for 30 min, in the presence or absence (50 microl) of the test compounds whose concentrations ranged from 10^−12 M to 10^−6M. Subsequently, LPS (3 ng/ml) was added. After 18 hours of incubation at 37° C. in a humidified incubator under an atmosphere of 95% air and 5% CO2, culture medium was collected and TNF-α measured by ELISA.
The effects of the tested compounds were calculated as percentage of inhibition of TNF-α release, assuming LPS-induced TNF-α production in the absence of inhibitor compound as 100% and basal TNF-α production of PBMCs in the absence of LPS as 0%.

Another assay relates to PDE4 enzyme. The experiment in a line: In vitro PDE4 inhibitory activity in the cell free assay (cAMP disappearance, U937 cell supernatant). It counts as biochemical, human. Conditions: 1.6 μM cAMP, 30° C. 30 minutes. The procedure: The U937 human monocytic cell line was used as source of PDE4 enzyme. Cells were cultured, harvested and supernatant fraction prepared essentially as described in Torphy, T. J. et al., J. Pharmacol. Exp. Ther., 1992; 263:1195-1205. PDE4 activity was determined in cells supernatants by assaying cAMP disappearance from the incubation mixtures. 50 μl of cell supernatant were incubated at 30° C. for 30 minutes in a final volume of 200 μl in the presence of 1.6 μM cAMP with or without the test compound (50 μl).
The concentration of the test compounds ranged between 10^−12 M and 10^−6 M. Reactions were stopped by heat inactivation (2.5 minutes at 100° C.) and residual cAMP was measured using an electrochemiluminescence (ECL)-based immunoassay.
Percentage of inhibition of PDE4 activity was calculated, assuming cAMP disappearance in the absence of inhibitors as 100% and cAMP disappearance in heat inactivated samples as 0%.

Another assay addresses HPDE4. Nature of the assay: Competition for high affinity HPDE4 ([H^3] rolipram binding). Conditions: 50% inhibition of the binding of [H^3] rolipram.
Description: as §1, §2

Molecules are shown by their SMILES.

The text below walks through data of patent US9102619B2, “Derivatives of 1-phenyl-2-pyridinyl alkyl alcohols as phosphodiesterase inhibitors” (Chiesi Farmaceutici S.p.A., priority 2007, dated 2015).

Consider `COc1ccc(C(Cc2c(Cl)cncc2Cl)OC(=O)C(C)c2ccc(CC(C)C)cc2)cc1OC1CCCC1` (stereo not drawn) [Compound 9, 2-(4-isobutyl-phenyl)-propionic acid 1-(3-cyclopentyloxy-4-methoxy-phenyl)-2-(3,5-dichloro-pyridin-4-yl)-ethyl ester], for which the HPDE4/LPDE4 with LPDE4 [1] came out at 541. Moreover, the IC50 with LPDE4 [2] was determined as 0.738 nM; in assay [3] (PBMC), 85 nM; in the assay with PDE4 enzyme it was 22 nM; at HPDE4, 399 nM.

Regarding `CC(C)Cc1ccc(C(C)C(=O)OC(Cc2c(Cl)cncc2Cl)c2ccc(OC(F)F)c(OCC3CC3)c2)cc1` (stereo not drawn) [Compound 12, 2-(4-isobutyl-phenyl)-propionic acid 1-(3-cyclopropylmethoxy-4-difluoromethoxy-phenyl)-2-(3,5-dichloro-pyridin-4-yl)-ethyl ester], the figures for the IC50 (in assay [3] (PBMC); in the assay with PDE4 enzyme) were 456 nM and 12 nM, respectively.

Take `COc1ccc(C(Cc2c(Cl)cncc2Cl)OC(=O)[C@@H](C)c2ccc(CC(C)C)cc2)cc1OC` (stereo partly drawn) [Compound 1, (S)-2-(4-isobutyl-phenyl)-propionic acid 2-(3,5-dichloro-pyridin-4-yl)-1-(3,4-dimethoxy-phenyl)-ethyl ester]: the IC50 in assay [3] (PBMC) is 69 nM; with PDE4 enzyme, 118 nM.

Consider `COc1ccc(C(Cc2c(Cl)cncc2Cl)OC(=O)C2(c3ccccc3)CC2)cc1OC` (stereo not drawn) [Compound 3, 1-phenyl-cyclopropanecarboxylic acid 2-(3,5-dichloro-pyridin-4-yl)-1-(3,4-dimethoxy-phenyl)-ethyl ester], for which the IC50 in assay [3] (PBMC) stood at 52 nM; in the assay on PDE4 enzyme, 118 nM.

In the case of `CC(C)Cc1ccc(C(C)C(=O)OC(Cc2c(Cl)c[n+]([O-])cc2Cl)c2ccc(OC(F)F)c(OCC3CC3)c2)cc1` (stereo not drawn) [Compound 15, 2-(4-isobutyl-phenyl)-propionic acid 1-(3-cyclopropylmethoxy-4-difluoromethoxy-phenyl)-2-(3,5-dichloro-1-oxy-pyridin-4-yl)-ethyl ester], the HPDE4/LPDE4 in the assay with LPDE4 [1] is recorded as 273. The concentration for half-maximal inhibition (IC50) in the assay on LPDE4 [2] stood at 0.169 nM; in assay [3], 15 nM; in the assay on PDE4 enzyme, 8.6 nM; on HPDE4, 2.17 nM.

Turning to `COc1ccc(C(Cc2c(Cl)cncc2Cl)OC(=O)Cc2ccccc2)cc1OC` (stereo not drawn) [Compound 2, phenyl-acetic acid 2-(3,5-dichloro-pyridin-4-yl)-1-(3,4-dimethoxy-phenyl)-ethyl ester], inhibition in assay [3] (PBMC) was half-maximal at 89 nM (IC50).

Consider `COc1ccc(C(O)Cc2c(Cl)c[n+]([O-])cc2Cl)cc1OC1CCCC1` (stereo not drawn) [Compound 20], for which the HPDE4/LPDE4 with LPDE4 [1] turned out to be 394. In addition, the IC50 in the assay with LPDE4 [2] amounted to 0.759 nM; on HPDE4, 299 nM.

Take `O=C(OC(Cc1c(Cl)cncc1Cl)c1ccc(OC(F)F)c(OCC2CC2)c1)c1ccc(OC(F)F)c(OCC2CC2)c1` (stereo not drawn) [Compound 11, 3-cyclopropylmethoxy-4-difluoromethoxy-benzoic acid 1-(3-cyclopropylmethoxy-4-difluoromethoxy-phenyl)-2-(3,5-dichloro-pyridin-4-yl)-ethyl ester]: in the assay with LPDE4 [1], the HPDE4/LPDE4 was 1319. Besides, the IC50 with LPDE4 [2] is 0.116 nM; in assay [3] (PBMC), 51 nM; with PDE4 enzyme, 12 nM; on HPDE4 it was 153 nM.

Consider `CC(C)(C)OC(=O)N[C@@H](C(=O)OC(Cc1c(Cl)cncc1Cl)c1ccc(OC(F)F)c(OCC2CC2)c1)c1ccccc1` (stereo partly drawn) [Compound 6, (R)-tert-butoxycarbonylamino-phenyl-acetic acid 1-(3-cyclopropylmethoxy-4-difluoromethoxy-phenyl)-2-(3,5-dichloro-pyridin-4-yl)-ethyl ester], for which the IC50 in assay [3] (PBMC) worked out at 95 nM; in the assay with PDE4 enzyme it was 9 nM.

As to `COc1ccc(C(=O)OC(Cc2c(Cl)cncc2Cl)c2ccc(OC)c(OC)c2)cc1OC` (stereo not drawn) [Compound 4, 3,4-dimethoxy-benzoic acid 2-(3,5-dichloro-pyridin-4-yl)-1-(3,4-dimethoxy-phenyl)-ethyl ester], the values for the IC50 (in assay [3] (PBMC); with PDE4 enzyme) were 34.2 nM and 3.4 nM, respectively.

Take `N[C@@H](C(=O)OC(Cc1c(Cl)cncc1Cl)c1ccc(OC(F)F)c(OCC2CC2)c1)c1ccccc1` (stereo partly drawn) [Compound 8, (R)-amino-phenyl-acetic acid 1-(3-cyclopropylmethoxy-4-difluoromethoxy-phenyl)-2-(3,5-dichloro-pyridin-4-yl)-ethyl ester]: the IC50 in the assay with PDE4 enzyme turned out to be 22 nM.

For the compound `COc1ccc(C(Cc2c(Cl)cncc2Cl)OC(=O)C(C)c2ccc(N)cc2)cc1OC` (stereo not drawn) [Compound 16, 2-(4-amino-phenyl)-propionic acid 2-(3,5-dichloro-pyridin-4-yl)-1-(3,4-dimethoxy-phenyl)-ethyl ester], the IC50 was 36 nM in assay [3] (PBMC) and 6.3 nM with PDE4 enzyme.

Take `O=C(OC(Cc1c(Cl)c[n+]([O-])cc1Cl)c1ccc(OC(F)F)c(OCC2CC2)c1)c1ccc(OC(F)F)c(OCC2CC2)c1` (stereo not drawn) [Compound 14, 3-cyclopropylmethoxy-4-difluoromethoxy-benzoic acid 1-(3-cyclopropylmethoxy-4-difluoromethoxy-phenyl)-2-(3,5-dichloro-1-oxy-pyridin-4-yl)-ethyl ester]: in assay [3] (PBMC), the IC50 amounted to 2 nM.

For `COc1ccc(C(Cc2c(Cl)c[n+]([O-])cc2Cl)OC(=O)C(C)c2ccc(CC(C)C)cc2)cc1OC` [Compound 13, (S)-2-(4-isobutyl-phenyl)-propionic acid 2-(3,5-dichloro-1-oxy-pyridin-4-yl)-1-(3,4-dimethoxy-phenyl)-ethyl ester], in assay [3] (PBMC), the IC50 amounted to 13 nM.

As to `N[C@H](C(=O)OC(Cc1c(Cl)cncc1Cl)c1ccc(OC(F)F)c(OCC2CC2)c1)c1ccccc1` (stereo partly drawn) [Compound 7, (S)-amino-phenyl-acetic acid 1-(3-cyclopropylmethoxy-4-difluoromethoxy-phenyl)-2-(3,5-dichloro-pyridin-4-yl)-ethyl ester], the IC50 in assay [3] (PBMC) worked out at 99 nM; with PDE4 enzyme, 7 nM.
